Structures are written as SMILES.

One may read the Kd as a measure of binding affinity in units of concentration. The low end stands for a tighter complex, the high end for a looser complex.

The experiment has as its target T1, ECHS1 (short-chain enoyl-CoA hydratase) (Homo sapiens, UniProt P30084).
T1 sequence (P30084 28-290): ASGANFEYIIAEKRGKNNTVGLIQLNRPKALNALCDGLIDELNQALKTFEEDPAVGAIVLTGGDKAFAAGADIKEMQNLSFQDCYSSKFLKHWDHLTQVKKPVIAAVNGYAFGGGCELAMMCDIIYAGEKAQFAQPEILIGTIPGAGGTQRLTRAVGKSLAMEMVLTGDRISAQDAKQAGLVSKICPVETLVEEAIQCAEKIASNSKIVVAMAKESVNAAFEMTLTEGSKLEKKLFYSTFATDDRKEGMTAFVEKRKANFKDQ
Kind of experiment: SPR. The class given is binding.
As to `C/C=C/C(=O)SCCNC(=O)CCNC(=O)[C@H](O)C(C)(C)COP(=O)(O)OP(=O)(O)OC[C@H]1O[C@@H](n2cnc3c(N)ncnc32)[C@H](O)[C@@H]1OP(=O)(O)O` [crotonyl-CoA], the Kd worked out at 863 nM. As for `CC(=O)CC(=O)SCCNC(=O)CCNC(=O)[C@H](O)C(C)(C)COP(=O)(O)OP(=O)(O)OC[C@H]1O[C@@H](n2cnc3c(N)ncnc32)[C@H](O)[C@@H]1OP(=O)(O)O` [acetoacetyl-CoA], the affinity, expressed as Kd, was 2690 nM. Turning to `CCCCCCCC(=O)SCCNC(=O)CCNC(=O)[C@H](O)C(C)(C)COP(=O)(O)OP(=O)(O)OC[C@H]1O[C@@H](n2cnc3c(N)ncnc32)[C@H](O)[C@@H]1OP(=O)(O)O` [octanoyl-CoA], the Kd worked out at 2640 nM. For the compound `CCCCCC(=O)SCCNC(=O)CCNC(=O)[C@H](O)C(C)(C)COP(=O)(O)OP(=O)(O)OC[C@H]1O[C@@H](n2cnc3c(N)ncnc32)[C@H](O)[C@@H]1OP(=O)(O)O` [hexanoyl-CoA], binding was characterised by a dissociation constant (Kd) of 2570 nM.

Values taken from PMC12003839 (Communications Biology, 2025).
